Assay results as given in patent US7829542B2, “Prophylactic and therapeutic treatment of infectious and other diseases with immunoeffector compounds” (Corixa Corporation, priority 2002, dated 2010).

How the values were obtained:
[1] = test system: L. monocytogenes 10403 serotype; experiment: Murine Listeria monocytogenes challenge model (induction of non-specific resistance); assay type: in vivo, mice; conditions: 1 μg intravenously in 0.2% TEOA, i.v. challenge with ~10^5 L. monocytogenes two days later, spleen CFUs two days after challenge
Procedure: This example provides experiments evaluating the induction of non-specific resistance in the murine Listeria monocytogenes challenge model performed using the compounds prepared in examples 1, 2 and 3. Mice (5 per group) were treated intravenously with the 1 μg of a cyclic AGP or MPL solublized in 0.2% triethanolamine (TEOA). Two days later the mice were challenged intravenously with a ˜10^5 L. monocytogenes 10403 serotype (stock culture provided by Jory Baldridge, Washington State University, Pullman, Wash.). Two days after the challenge the mice were sacrificed and the number of colony forming units (CFUs) in the spleens of individual mice were determined by plating 10-fold serial dilutions of splenic homogenates on tryptic soy agar plates. The degree of protection afforded by a given AGP or MPL was calculated by subtracting the average number of bacteria per spleen (log 10 value) in the group of mice treated with a given compound, from the average number of bacteria per spleen (log 10 value) in a control group that was “sham” treated with vehicle (0.2% TEOA) prior to challenge with L. monocytogenes.

Influenza A/HK/68 = experiment: Protection against lethal influenza challenge by prophylactic administration; assay type: in vivo, BALB/c mice; conditions: 20 μg intranasally 48 hours prior to lethal intranasal challenge (5 LD50)
Procedure: This example provides experiments evaluating protection against a lethal challenge with influenza in cyclic AGP-treated mice. BALB/c mice (10 mice per group) were treated intranasally with 20 μg of the compounds of examples 1, 2 and 3, or with MPL, 48 hours prior to an lethal intranasal challenge of Influenza A/HK/68 (5 LD50). Protection was judged by survival, observations of clinical symptoms (ruffled fur, hunched posture and labored breathing), and prevention of weight loss for 21 days following the challenge.

| Compound | degree of protection: average bacteria per spleen (log 10) in the vehicle control group minus that in the treated group [1] [log 10 units] | protection compared with the vehicle control (in words) (Influenza A/HK/68) | survival rate (Influenza A/HK/68; followed for 21 days) [%] | survival (in words) (Influenza A/HK/68; followed for 21 days) |
| --- | --- | --- | --- | --- |
| CCCCCCCCCCCC(=O)O[C@H](CCCCCCCCCCC)CC(=O)N[C@H]1[C@H](OC[C@@H]2CCCN2C(=O)C[C@@H](CCCCCCCCCCC)OC(=O)CCCCCCCCCCC)O[C@H](CO)[C@@H](OP(=O)(O)O)[C@@H]1OC(=O)C[C@@H](CCCCCCCCCCC)OC(=O)CCCCCCCCCCC.CCN(CC)CC [Example 2, N-[(R)-3-Dodecanoyloxytetradecanoyl]-(S)-2-pyrrolidinylmethyl 2-Deoxy-4-O-phosphono-2-[(R)-3-dodecanoyloxy-tetradecanoylamino]-3-O-[(R)-3-dodecanoyloxytetradecanoyl]-β-D-glucopyranoside Triethylammonium Salt] | 0.7 | enhanced protection | 40 | – |
| CCCCCCCCCCC[C@H](CC(=O)N[C@H]1[C@H](OC[C@@H]2CCCN2C(=O)C[C@@H](CCCCCCCCCCC)OC(=O)CCCCCCCCC)O[C@H](CO)[C@@H](OP(=O)(O)O)[C@@H]1OC(=O)C[C@@H](CCCCCCCCCCC)OC(=O)CCCCCCCCC)OC(=O)CCCCCCCCC.CCN(CC)CC [Example 3, N-[(R)-3-Decanoyloxytetradecanoyl]-(S)-2-pyrrolidinylmethyl 2-Deoxy-4-O-phosphono-2-[(R)-3-Decanoyloxytetradecanoylamino]-3-O-[(R)-3-Decanoyloxytetradecanoyl]-β-D-glucopyranoside Triethylammonium Salt] | ~0.9 | enhanced protection | 60 | – |
| N-[(R)-3-Tetradecanoyloxytetradecanoyl]-(S)-2-pyrrolidinylmethyl 2-Deoxy-4-O-phosphono-2-[(R)-3-tetradecanoyloxytetradecanoylamino]-3-O-[(R)-3-tetradecanoyloxytetradecanoyl]-β-D-glucopyranoside Triethylammonium Salt [Example 1] | 0.2 | – | – | No mice treated with the compound of example 1 survived |
